Test results: the NIST ThermoML archive (doi:10.1016/j.jct.2018.06.022)

Settings: Liquid, Closed cell (Static) method

O=C=O [carbon dioxide]
Settings	vapor or sublimation pressure [kPa]
218.15 K	552.5
233.15 K	1004.4
243.15 K	1428
258.15 K	2293.7
273.15 K	3484.6
288.19 K	5089.6
302.94 K	7171.2
